Measured values reported in PubChem BioAssay AID1963866 (Molecular Pharmacology Branch, DTP, NCI, 2024).
pIC50: −log10 of the molar value.

Tested on: PDC KRAS tumor spheroids with HUVEC/MSC, viability
Experiment: Anticancer human tumor 349418-098-R-PDC patient-derived lung adenocarcinoma cell line growth inhibition [KRAS2]
Conditions: for pIC50: curve of first compound; for viability, T/C: stronger effect = lower value
Method in brief: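 KRAS-mutant tumor cells were grown as spheroids with HUVEC endothelial cells and human MSCs as stroma. Targeted agents were tested alone and with KRAS pathway inhibitors. Doses started at or near clinical Cmax, or 10 microM, descending half-log.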

[1] = second compound 0.1 µM, first compound 0.0316 µM
[2] = second compound 0.1 µM, first compound 0.1 µM
[3] = second compound 0.1 µM, first compound 0.316 µM
[4] = second compound 0.1 µM, first compound 1 µM
[5] = second compound 0.1 µM, first compound 3.16 µM
[6] = second compound 0.1 µM, first compound 10 µM
[7] = second compound 0.316 µM, first compound 0.0316 µM
[8] = second compound 0.316 µM, first compound 0.1 µM
[9] = second compound 0.316 µM, first compound 0.316 µM
[10] = second compound 0.316 µM, first compound 1 µM
[11] = second compound 0.316 µM, first compound 3.16 µM
[12] = second compound 0.316 µM, first compound 10 µM
[13] = second compound 1 µM, first compound 0.0316 µM
[14] = second compound 1 µM, first compound 0.1 µM
[15] = second compound 1 µM, first compound 0.316 µM
[16] = second compound 1 µM, first compound 1 µM
[17] = second compound 1 µM, first compound 3.16 µM
[18] = second compound 1 µM, first compound 10 µM
[19] = second compound 3.16 µM, first compound 0.0316 µM
[20] = second compound 3.16 µM, first compound 0.1 µM
[21] = second compound 3.16 µM, first compound 0.316 µM
[22] = second compound 3.16 µM, first compound 1 µM
[23] = second compound 3.16 µM, first compound 3.16 µM
[24] = second compound 3.16 µM, first compound 10 µM
[25] = second compound 10 µM, first compound 0.0316 µM
[26] = second compound 10 µM, first compound 0.1 µM
[27] = second compound 10 µM, first compound 0.316 µM
[28] = second compound 10 µM, first compound 1 µM
[29] = second compound 10 µM, first compound 3.16 µM
[30] = second compound 10 µM, first compound 10 µM
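Further: spheroids exposed to compounds for seven days before readout.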

SMILES | pIC50 (second compound 0.1 µM) | pIC50 (second compound 0.316 µM) | pIC50 (second compound 1 µM) | pIC50 (second compound 3.16 µM) | pIC50 (second compound 10 µM) | viability, T/C [1] [%] | viability, T/C [2] [%] | viability, T/C [3] [%] | viability, T/C [4] [%] | viability, T/C [5] [%] | viability, T/C [6] [%] | viability, T/C [7] [%] | viability, T/C [8] [%] | viability, T/C [9] [%] | viability, T/C [10] [%] | viability, T/C [11] [%] | viability, T/C [12] [%] | viability, T/C [13] [%] | viability, T/C [14] [%] | viability, T/C [15] [%] | further results
COc1cc(Nc2ncc3c(n2)-c2ccc(Cl)cc2C(c2c(F)cccc2OC)=NC3)ccc1C(=O)O + CNCc1ccccc1-c1csc(C(C)Nc2nc(C)nc3cc(OC)c(OC)cc23)c1 | > 7.50 | > 7.50 | > 7.50 | > 7.50 | > 7.50 | 51.9 | 26.1 | 38.8 | 36.7 | 32.7 | 24.8 | 51.1 | 26.1 | 35.7 | 32.2 | 32.8 | 28.8 | 40.2 | 23.6 | 32.4 | viability, T/C [16]: 26.8%; viability, T/C [17]: 25.9%; viability, T/C [18]: 26.7%; viability, T/C [19]: 0.15%; viability, T/C [20]: 0.11%; viability, T/C [21]: 0.14%; viability, T/C [22]: 0.14%; viability, T/C [23]: 0.08%; viability, T/C [24]: 0.29%; viability, T/C [25]: 0.08%; viability, T/C [26]: 0.07%; viability, T/C [27]: 0.08%; viability, T/C [28]: 0.08%; viability, T/C [29]: 0.08%; viability, T/C [30]: 0.13%
COc1cc2nccc(Oc3ccc(NC(=O)C4(C(=O)Nc5ccc(F)cc5)CC4)cc3)c2cc1OC + CNCc1ccccc1-c1csc(C(C)Nc2nc(C)nc3cc(OC)c(OC)cc23)c1 | 5.80 | 5.79 | 6.22 | > 7.50 | > 7.50 | 101 | 99.5 | 95.4 | 73.3 | 9.71 | 18.6 | 97.4 | 95 | 85.5 | 79.6 | 7.07 | 14.3 | 95.4 | 93.9 | 78.4 | viability, T/C [16]: 26.9%; viability, T/C [17]: 0.88%; viability, T/C [18]: 1.04%; viability, T/C [19]: 0.14%; viability, T/C [20]: 0.09%; viability, T/C [21]: 0.12%; viability, T/C [22]: 0.04%; viability, T/C [23]: 0.12%; viability, T/C [24]: 0.08%; viability, T/C [25]: 0.08%; viability, T/C [26]: 0.07%; viability, T/C [27]: 0.08%; viability, T/C [28]: 0.24%; viability, T/C [29]: 0.07%; viability, T/C [30]: 0.13%
O=C(c1cc(Cc2n[nH]c(=O)c3ccccc23)ccc1F)N1CCN(C(=O)C2CC2)CC1 + CNCc1ccccc1-c1csc(C(C)Nc2nc(C)nc3cc(OC)c(OC)cc23)c1 | 5.39 | 5.54 | 5.60 | > 7.50 | > 7.50 | 101 | 99.5 | 83 | 71 | 58.1 | 31.4 | 107 | 101 | 78.5 | 69.7 | 48.4 | 29 | 99.5 | 77.8 | 75.3 | viability, T/C [16]: 69.6%; viability, T/C [17]: 45.3%; viability, T/C [18]: 27.8%; viability, T/C [19]: 0.19%; viability, T/C [20]: 0.21%; viability, T/C [21]: 0.12%; viability, T/C [22]: 0.11%; viability, T/C [23]: 0.1%; viability, T/C [24]: 0.11%; viability, T/C [25]: 0.08%; viability, T/C [26]: 0.08%; viability, T/C [27]: 0.08%; viability, T/C [28]: 0.07%; viability, T/C [29]: 0.07%; viability, T/C [30]: 0.17%
